Data published in patent publication US20250099448A1, “HETEROCYCLIC COMPOUNDS” (Hoffmann-La Roche Inc., priority 2022, published 2025).

molecular target: T1, MAGL protein (Homo sapiens, UniProt Q99685); assay: 2-AG assay: MAGL inhibitory activity by hydrolysis of 2-arachidonoylglycerol to arachidonic acid, followed by mass spectrometry; format: biochemical; settings: 8 μM 2-arachidonoylglycerol, 15 min preincubation, 30 min reaction at RT, RapidFire MS readout
T1 sequence (Q99685 1-303): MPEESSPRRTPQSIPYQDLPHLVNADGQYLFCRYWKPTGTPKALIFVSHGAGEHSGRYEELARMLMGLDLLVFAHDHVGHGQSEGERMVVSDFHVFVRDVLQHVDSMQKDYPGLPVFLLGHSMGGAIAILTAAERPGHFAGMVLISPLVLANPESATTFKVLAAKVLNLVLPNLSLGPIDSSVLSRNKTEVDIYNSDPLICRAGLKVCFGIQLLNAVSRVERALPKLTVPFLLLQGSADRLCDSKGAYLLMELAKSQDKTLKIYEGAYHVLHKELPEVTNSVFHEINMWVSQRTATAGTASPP
In short: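 MAGL was preincubated 15 min at RT with compound (12.5 to […], 3-fold steps) in 50 mM TRIS, 1 mM EDTA, 0.01% Tween-20, 2.5% DMSO. The reaction ran 30 min at RT with 8 μM 2-AG. Arachidonic acid was quantified by RapidFire SPE-MS/MS against a d8-arachidonic acid internal standard.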

| SMILES | IC50 [nM] |
| --- | --- |
| Cc1cc(C23CC(C4CN(C(=O)N5CC6(CC(c7nc(C8CC8)n[nH]7)C6)C5)C4)(C2)C3)[nH]n1 [compound 595] | 3.63 |
| Cc1cc(C)n(C23CC(C4CN(C(=O)N5CC6(CC(c7nc(C8(O)CC8)n[nH]7)C6)C5)C4)(C2)C3)n1 [compound 712] | 497 |
| O=C(N1CC(c2ccc(C3(C(F)(F)F)CC3)nc2)C1)N1CC2(CC(c3nnc(C4(O)CC4)[nH]3)C2)C1 [compound 232] | 43.6 |
| O=C(N1CC2(CC(Cc3cnc(C(F)(F)F)cn3)C2)C1)N1CC2(CC(c3nc(C(F)(F)F)n[nH]3)C2)C1 [compound 788] | 22.5 |
| O=C(N1CC2(CC(Oc3ccc(C(F)(F)F)nn3)C2)C1)N1CC2(CC(c3nnc(C4CC4)[nH]3)C2)C1 [compound 78] | 3.92 |
| N=S(=O)(c1ccc(C(F)(F)F)cc1)C1CCC2(CC1)CN(C(=O)N1CC3(CC(c4nc(C5CC5)n[nH]4)C3)C1)C2 (stereo not drawn) [Example 429] | 11.8 |
| N=S(=O)(c1cccc(OC(F)(F)F)c1)C1CC2(C1)CN(C(=O)N1CC3(CC(c4nnc(C5CC5)[nH]4)C3)C1)C2 (stereo not drawn) [compound 575] | 4.02 |
| O=C(N1CC2(CC(c3nc(C4(O)CC4)n[nH]3)C2)C1)N1CC2(CC(S(=O)(=O)c3cccc(OC(F)(F)F)c3)C2)C1 [compound 484] | 89.2 |
| O=C(N1CC(OCc2ccc(OC(F)(F)F)cc2)C1)N1CC2(CC(c3nnc(C4CC4)[nH]3)C2)C1 [compound 315] | 4.93 |
| O=C(N1CC2(CCC(Cc3cnc(C(F)(F)F)cn3)CC2)C1)N1CC2(CC(c3nnc(C4(O)CC4)[nH]3)C2)C1 [compound 137] | 6.79 |
| Cc1nn(CC(F)(F)F)cc1CN1CC2(C1)CN(C(=O)N1CC3(CC(c4nc(C5CC5)n[nH]4)C3)C1)C2 [compound 440] | 109 |
| O=C(N1CC2(CC(Cn3cnc(C(F)(F)F)n3)C2)C1)N1CC2(CC(c3nc(C4CC(F)(F)C4)n[nH]3)C2)C1 [compound 441] | 414 |
| CS(=O)(=O)c1ccc(CC2CC3(C2)CN(C(=O)N2CC4(CC(c5nc(C6CC(F)(F)C6)n[nH]5)C4)C2)C3)cc1 [compound 582] | 167 |
| O=C(N1CC2(CC(Cc3ccc4ncnn4c3)C2)C1)N1CC2(CC(c3nc(C4(O)CC4)n[nH]3)C2)C1 [compound 626] | 56.4 |
| O=C(N1CC(CNS(=O)(=O)c2cccc(C(F)(F)F)c2)C1)N1CC2(CC(c3nnc(C4CC4)[nH]3)C2)C1 [compound 208] | 21.6 |
| CS(=O)(=O)c1ccc(OCC2CCN(C(=O)N3CC4(CC(c5n[nH]c(C6CC6)n5)C4)C3)CC2)cc1C(F)(F)F [Example 924, [6-(5-cyclopropyl-1H-1,2,4-triazol-3-yl)-2-azaspiro[3.3]heptan-2-yl]-[4-[[4-mesyl-3-(trifluoromethyl)phenoxy]methyl]piperidino]methanone] | 49.2 |
| O=C(N1CC2(CC(c3nc(C4CC4)n[nH]3)C2)C1)N1CC2(CN(Cc3nc(CC(F)(F)F)no3)C2)C1 [compound 695] | 43.8 |

| SMILES | IC50 [nM] |
| --- | --- |
| O=C(N1CC2(CC(c3nc(C4CC4)n[nH]3)C2)C1)N1CC2(CN(Cc3nnn(CC(F)(F)F)n3)C2)C1 [compound 546] | 140 |
| O=C(N1CCC(c2nn(C[C@H](O)C(F)(F)F)c3ccc(Cl)cc23)CC1)N1CC2(CC(c3nnc(C4CC4)[nH]3)C2)C1 [Example 864] | 14.3 |
| CC(C)(C)c1ncc(CN2CC3(C2)CN(C(=O)N2CC4(CC(c5nc(C6CC6)n[nH]5)C4)C2)C3)s1 [compound 415] | 4.43 |
| O=C(N1CC(c2nc(CC3(C(F)(F)F)CC3)no2)C1)N1CC2(CC(c3nnc(C4CC4)[nH]3)C2)C1 [compound 245] | 50.2 |
| CC(C)(C)Cc1nnc(C23CC(C4CN(C(=O)N5CC6(CC(c7nc(C8(F)CC8)n[nH]7)C6)C5)C4)(C2)C3)s1 [compound 492] | 3.84 |
| O=C(N1CCC(NS(=O)(=O)c2ccc(F)cc2)CC1)N1CC2(CC(c3nnc(C4CC4)[nH]3)C2)C1 [compound 249] | 1300 |
| O=C(N1CC(c2ccc(N3CCC(C(F)(F)F)CC3=O)cc2)C1)N1CC2(CC(c3nnc(C4CC4)[nH]3)C2)C1 (single isomer, unassigned) [compound 280] | 3.82 |
| O=C(N1CC2(CC(c3nnc(C4(O)CC4)[nH]3)C2)C1)N1CC2(C1)CN(S(=O)(=O)c1ccc(C(F)(F)F)cc1)C2 [compound 104] | 198 |
| O=C(N1CC(N(Cc2ccc(C(F)(F)F)cc2F)C2CC2)C1)N1CC2(CC(c3nnc(C4CC4)[nH]3)C2)C1 [compound 200] | 69.7 |
| CS(=N)(=O)c1cccc(CC2CC3(C2)CN(C(=O)N2CC4(CC(c5nc(C6CC(F)(F)C6)n[nH]5)C4)C2)C3)c1 (stereo not drawn) [compound 493] | 956 |
| NS(=O)(=O)c1ccc(C2CN(C(=O)N3CC4(CC(c5nnc(C6CC6)[nH]5)C4)C3)C2)cc1 [compound 380] | 64.2 |
| Cn1ncc(CN2CC3(C2)CN(C(=O)N2CC4(CC(c5nc(C6CC6)n[nH]5)C4)C2)C3)c1S(N)(=O)=O [compound 580] | 679 |
| O=C(N1CC2(CC(c3nnc(C4CC4)[nH]3)C2)C1)N1CC2(CC(N3CC(C(F)(F)F)C3)C2)C1 [compound 83] | 25.7 |
| CS(=O)(=O)c1ccc(CC2CC3(C2)CN(C(=O)N2CC4(CC(c5ncn[nH]5)C4)C2)C3)cc1C(F)(F)F [compound 984] | 2770 |
| O=C(N1CC2(CC(c3nnc(C4CC4)[nH]3)C2)C1)N1CC2(CN(Cc3ncc(C(F)(F)F)cn3)C2)C1 [compound 161] | 78.8 |
| O=C(N1CC2(CCC(Cc3ccc(C(F)(F)F)nc3)CC2)C1)N1CC2(CC(c3nnc(C4(O)CC4)[nH]3)C2)C1 [compound 141] | 10.6 |

These reach a lower IC50. Values come first.

| IC50 [nM] | SMILES |
| --- | --- |
| 0.2 | O=C(N1CC2(CC(Cc3ncc(F)cc3F)C2)C1)N1CC2(CC(c3nnc(C4CC4)[nH]3)C2)C1 [compound 115] |
| 2.74 | CS(=O)(=O)c1cc(C(F)(F)F)ccc1CN1CC2(C1)CN(C(=O)N1CC3(CC(c4nc(C5CC5)n[nH]4)C3)C1)C2 [compound 889] |
| 2.9 | O=C(N1CC2(CC(Cn3cnc(C4(C(F)(F)F)CC4)c3)C2)C1)N1CC2(CC(c3nc(C4CC4)n[nH]3)C2)C1 [compound 860] |
| 2.48 | O=C(N1CC(CCc2ccc(C(F)(F)F)cc2F)C1)N1CC2(CC(c3nc(C4(O)CC4)n[nH]3)C2)C1 [compound 349] |
| 1.32 | O=C(N1CC(C23CC(COc4cc(C(F)(F)F)ccn4)(C2)C3)C1)N1CC2(CC(c3nc(C4CC4)n[nH]3)C2)C1 [compound 942] |
| 2.01 | Cn1nc(C(F)(F)F)cc1CC1CC2(C1)CN(C(=O)N1CC3(CC(c4nc(C5(O)CC5)n[nH]4)C3)C1)C2 [compound 775] |
| 0.09 | CS(=O)(=O)c1ccc(CC2CC3(C2)CN(C(=O)N2CC4(CC(c5nnc(C6CC6)[nH]5)C4)C2)C3)c(F)c1 [compound 130] |
| 2.19 | O=C(N1CC2(CC(c3nnc(C4CC4)[nH]3)C2)C1)N1CC(O)(c2ccc(N3CC(C(F)(F)F)C3)cc2)C1 [Example 306, [6-(5-Cyclopropyl-4H-1,2,4-triazol-3 yl)-2-azaspiro[3.3]heptan-2-yl]-[3-hydroxy-3-[4-[3-(trifluoromethyl)azetidin-1-yl]phenyl]azetidin-1 yl)methanone] |
| 0.3 | O=C(N1CC2(CC(Cc3nc(C(F)(F)F)cs3)C2)C1)N1CC2(CC(c3nc(C4CC4)n[nH]3)C2)C1 [compound 704] |
| 0.11 | N#Cc1cc(CC2CC3(C2)CN(C(=O)N2CC4(CC(c5nnc(C6(O)CC6)[nH]5)C4)C2)C3)ccc1C(F)(F)F [compound 27] |
| 0.7 | O=C(N1CC2(CC(NS(=O)(=O)c3ccccc3C(F)(F)F)C2)C1)N1CC2(CC(c3nnc(C4CC4)[nH]3)C2)C1 [compound 224] |
| 0.31 | O=C(N1CC(c2ccc(N3CC[C@H](C(F)(F)F)C3)nc2)C1)N1CC2(CC(c3nnc(C4CC4)[nH]3)C2)C1 [compound 267] |
| 0.44 | O=C(N1CC2(CC(Cn3cncc3C3(C(F)(F)F)CC3)C2)C1)N1CC2(CC(c3nc(C4CC4)n[nH]3)C2)C1 [compound 964] |
| 0.09 | O=C(N1CC2(CC(Cc3cncc(Cl)c3)C2)C1)N1CC2(CC(c3nnc(C4CC4)[nH]3)C2)C1 [compound 113] |
| 2.3 | N#Cc1c(OC2CN(C(=O)N3CC4(CC(c5nnc(C6CC6)[nH]5)C4)C3)C2)cccc1C1CC1 [compound 310] |
| 2.61 | O=C(N1CC2(CC(Cc3ccc(OC(F)(F)F)nc3)C2)C1)N1CC2(CC(c3nc(C4(O)CC4)n[nH]3)C2)C1 [compound 710] |
| 0.09 | O=C(N1CC2(CC(Cc3n[nH]cc3C(F)(F)F)C2)C1)N1CC2(CC(c3nc(C4CC4)n[nH]3)C2)C1 [compound 747] |
| 0.18 | O=C(N1CC2(CC(Cc3cncc(S(=O)(=O)C(F)(F)F)c3)C2)C1)N1CC2(CC(c3nc(C4CC4)n[nH]3)C2)C1 [compound 731] |
| 0.88 | O=C(N1CC2(CC(Cn3ccc(C4CC4)n3)C2)C1)N1CC2(CC(c3nc(C4CC4)n[nH]3)C2)C1 [compound 822] |
| 2.74 | O=C(N1CC2(CC(Cc3ccc4nnc(C(F)(F)F)n4c3)C2)C1)N1CC2(CC(c3nc(C4CC4)n[nH]3)C2)C1 [compound 995] |
| 1.57 | O=C(N1CC2(CC(Cc3nnc(C4(C(F)(F)F)CC4)o3)C2)C1)N1CC2(CC(c3nnc(C4CC4)[nH]3)C2)C1 [compound 862] |
| 0.39 | Cn1nc(C(F)(F)F)cc1CC1CC2(C1)CN(C(=O)N1CC3(CC(c4nc(C5CC5)n[nH]4)C3)C1)C2 [compound 785] |
| 1.14 | Cn1cc(CC2CC3(C2)CN(C(=O)N2CC4(CC(c5nc(C6(O)CC6)n[nH]5)C4)C2)C3)c(C(F)(F)F)n1 [compound 810] |
| 0.56 | N#Cc1cc(F)ccc1C12CC(C3CN(C(=O)N4CC5(CC(c6nc(C7CC7)n[nH]6)C5)C4)C3)(C1)C2 [compound 463] |
